Test results: patent US3941842A, “P,P'-Disubstituted α-trichloromethylbenzylanilines” (priority 1972, dated 1976)

Key:
[1] = tested on: multifunction oxidase (MFO) enzymes; conditions: background; cited from earlier work
[2] = background; cited from earlier work
[3] = Model ecosystem: distribution, ecological magnification and Biodegradability Index
From the text: After the amounts of the various metabolites have been calculated and a determination is made as to which of the metabolites are to be designated as "polar" and which are to be designated as "non-polar", a Biodegradability Index (amount of polar metabolites/amount of nonpolar metabolites) may be calculated. Remembering that nonpolar compounds, such as DDT are readily soluble in the fatty tissues, but are not readily soluble in water based solutions, and that the cell fluid is essentially a water based solution, the lower the Biodegradability Index, the lower the amount of biodegradability of the compound. The higher the amount of polarity, the greater the likelihood that the polar compound will dissolve in water, a very polar compound, and be eliminated from the cell.
The environmental fate of any new pesticide is a factor of paramount importance in determining how and where it might be used. The behavior of ^3 H-α-trichloromethyl-p-ethoxybenzyl-p-ethoxyaniline has been studied by the model ecosystem technique following application of 5.0 mg. of labeled compound to Sorghum plants. A summary of
metabolites from the organisms in the model ecosystem after 33 days were
identified by cochromatography with standards of known constitution, by
appropriate chromogenic reagents, and by high-resolution mass
spectrometry. The data of Table IV indicate the O-dealkylation of
Food Chem. 1 (1972). Ethoxychlor was found in the snail to 58.6 ppm and in the fish to 0.92 ppm, along with its ethylene and the mono- and bis-phenols formed by O-dealkylation. The ecological magnification (E.M.) of ethoxychlor, defined as the ratio of the parent material in the fish to the concentration in the water, was 1500-fold as compared with an E.M. of only 0.7-fold for the ethoxyaniline.
Comparing the Biodegradability Indices (B.I.=total recovered polar metabolites/total recovered nonpolar metabolites) the values are 0.44 for ethoxychlor and 2.0 for ethoxyaniline.

[4] = background; cited from earlier work; remark: listed apart in the source
insects = conditions: background; cited from earlier work

Clc1ccc(C(c2ccc(Cl)cc2)C(Cl)(Cl)Cl)cc1 [DDT, 1,1,1 trichloro-2,2-bis(p-chlorophenyl)ethane]
biodegradability (in words) [1]: not biodegradable
susceptibility to MFO enzymes (in words) [1]: do not function on DDT and its metabolic derivatives DDE and DDD
accumulation in animal tissues (in words) [2]: accumulation in the fatty or lipid tissues of animals
ecological magnification (E.M.) ([3]; ratio of parent material in fish to concentration in water): 84,000 fold
Biodegradability Index (B.I.) ([3]; total recovered polar/total recovered nonpolar metabolites): 0.015
lipid solubility (in words) [4]: high lipid solubility
water solubility (in words) [4]: very low water solubility
insecticidal activity (in words) (insects): effective contact or residual insecticide
